Measured values published in ChEMBL document CHEMBL1136795, “A computational model of binding thermodynamics: the design of cyclin-dependent kinase 2 inhibitors” (J Med Chem, 2003).

Target: Cyclin-dependent kinase 2 (Homo sapiens, UniProt P24941)
Experiment: Inhibition of Cyclin-dependent kinase 2 (CDK2)

- IC50: 2100 nM
SMILES: CN1CCC(c2c(O)cc(O)c3c(=O)cc(Sc4ccccc4Cl)oc23)C(O)C1 (stereo unspecified)
